Data: patent US6060462A, “Electrophilic peptide analogs as inhibitors of trypsin-like enzymes” (DuPont Pharmaceuticals Company, priority 1997, dated 2000)
Where a name gives a salt, the structure may show the parent alone. Read-outs that look alike come from different tables or passages of the source.

Columns and labels:
Format in all cases: biochemical
[1] = biological target: human thrombin (Homo sapiens, UniProt P00734); assay: Inhibition of thrombin hydrolysis of chromogenic substrate S2238 (Ki); set-up: 0.2-0.5 nM human thrombin or human factor Xa; purchased Enzyme Research Laboratories, South Bend, Ind; settings: purified human thrombin, 0.10 M sodium phosphate buffer, pH 7.5, read-out: Ki values for inhibition of Serine Proteases: Trombin
Protocol: (§1) The effectiveness of compounds of the present invention as inhibitors of blood coagulation proteases was determined using purified human proteases and synthetic substrates following procedures similar to those described in Kettner et al. (1990).
(§2) For these assays, the rate of enzymatic (thrombin, Factor Xa, and Factor VIIa) hydrolysis of chromogenic substrates (S2238 (H-D-Phe-Pip-Arg-pNA), S2222, and S2288, respectively; Kabi Pharmacia, Franklin, Ohio) was measured both in the absence and presence of compounds of the present invention. […] A decrease in the rate of absorbance change at 405 nm in the presence of inhibitor is indicative of enzyme inhibition. The results of this assay are expressed as inhibitory constant, Ki.
(§3) Thrombin and Xa determinations were made in 0.10 M sodium phosphate buffer, pH 7.5, containing 0.20 M NaCl, and 0.5% PEG 8000. VIIa determinations were made in 0.05 M tris buffer, pH 7.6, containing 0.10 M NaCl, 4 mM CaCl2, and 0.1% bovine serum albumin.
(§4) Reactions were allowed to go for 30 minutes and the velocities (rate of absorbance change vs time) were measured in the time frame of 25-30 minutes. The following relationship was used to calculate Ki values. [formula] where: vo is the velocity of the control in the absence of inhibitor;
(§5) vs is the velocity in the presence of inhibitor;
(§6) I is the concentration of inhibitor;
(§7) Ki is the dissociation constant of the enzyme: inhibitor complex;
(§8) S is the concentration of substrate;
(§9) Km is the Michaelis constant.

[2] = biological target: T1, human factor Xa (Homo sapiens, UniProt P00742); assay: Inhibition of Factor Xa hydrolysis of chromogenic substrate S2222 (Ki); settings: purified human factor Xa, 0.10 M sodium phosphate buffer; for Ki values for inhibition of Serine Proteases: Factor Xa: pH 7.5
T1 construct: 0.2-0.5 nM human thrombin or human factor Xa; purchased Enzyme Research Laboratories, South Bend, Ind
T1 sequence (P00742 235-488 limits assumed): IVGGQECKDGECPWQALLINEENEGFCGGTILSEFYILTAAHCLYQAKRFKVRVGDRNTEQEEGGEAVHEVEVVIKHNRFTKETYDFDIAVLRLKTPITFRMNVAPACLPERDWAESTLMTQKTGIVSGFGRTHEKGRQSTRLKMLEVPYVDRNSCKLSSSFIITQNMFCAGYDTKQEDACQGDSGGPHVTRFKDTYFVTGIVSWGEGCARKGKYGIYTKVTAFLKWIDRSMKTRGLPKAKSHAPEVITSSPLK
T1 sequence (P00742 41-179 partner limits assumed): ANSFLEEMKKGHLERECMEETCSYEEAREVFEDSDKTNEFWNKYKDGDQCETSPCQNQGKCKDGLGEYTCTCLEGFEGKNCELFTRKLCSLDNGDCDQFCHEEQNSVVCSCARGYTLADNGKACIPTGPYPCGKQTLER
Protocol: as §1, §2, §3, §4, §5, §6, §7, §8, §9

[3] = biological target: T2, human factor VIIa (Homo sapiens, UniProt P08709); assay: Inhibition of Factor VIIa hydrolysis of chromogenic substrate S2288 (Ki); settings: purified human factor VIIa, 0.05 M tris buffer; for Ki: pH 7.6, read-out: Ki values for inhibition of Serine Proteases: Factor VIIa; for Ki values for inhibition of Serine Proteases: Factor VIIa: pH 7.6
T2 construct: 50 nM human factor VIIa (BiosPacific, Emeryville, Calif.); purchased BiosPacific, Emeryville, Calif
T2 sequence (P08709 213-466 limits assumed): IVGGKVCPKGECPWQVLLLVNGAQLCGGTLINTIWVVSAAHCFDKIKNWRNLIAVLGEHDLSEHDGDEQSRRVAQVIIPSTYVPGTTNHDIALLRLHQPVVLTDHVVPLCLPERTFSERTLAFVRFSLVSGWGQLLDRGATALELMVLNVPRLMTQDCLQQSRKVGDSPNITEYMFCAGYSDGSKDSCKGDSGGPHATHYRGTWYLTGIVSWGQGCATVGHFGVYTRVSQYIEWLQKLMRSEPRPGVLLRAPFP
T2 sequence (P08709 61-212 partner limits assumed): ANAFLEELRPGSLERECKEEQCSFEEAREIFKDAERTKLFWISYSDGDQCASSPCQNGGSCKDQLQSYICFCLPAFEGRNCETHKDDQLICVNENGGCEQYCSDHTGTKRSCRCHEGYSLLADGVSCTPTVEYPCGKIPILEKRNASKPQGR
Protocol: as §1, §2, §3, §4, §5, §6, §7, §8, §9

[4] = pH 7.5, read-out: Ki values for inhibition of Serine Proteases: Factor Xa

`CC(c1ccccc1)N(CC(=O)NC(CCCCN)B1OC2CC3CC(C3(C)C)C2(C)O1)C(=O)CNS(C)(=O)=O` (stereo not drawn) [Example 67.3.2, Methanesylfonyl-Gly-[N-(N-(Methyl)-Benzyl)-Gly]-boroLys-C10H16 HCl] showed a Ki [1] of less than 500 nM.
Molecule `CC(=O)N(CC(=O)NC(CCCCN)B1OC2CC3CC(C3(C)C)C2(C)O1)Cc1ccccc1Cc1ccccc1` (stereo not drawn) [Example 64.1.2, Acetyl-Gly[N-(2-(Benzyl)-Benzyl)]-boroLys-C10H16 HCl] has a Ki [2, 4] of less than 50000 nM, a Ki [3] of less than 500 nM and a Ki [1] of less than 500 nM.
For `COC(=O)CCC(NC(=O)OC(C)(C)C)C(=O)N(CCc1ccccc1)CC(=O)NC(CCCCN)B1OC2CC3CC(C3(C)C)C2(C)O1` (stereo not drawn) [Example 69.2.3, Boc-Glu(OCH3)-[N-(Phenethyl)-Gly]-boroLys--C10H16 HCl], the Ki [3] was less than 50000 nM and the Ki [1] was less than 500 nM.
`CN(CC(=O)NC(CCCBr)B1OC2CC3CC(C3(C)C)C2(C)O1)C(=O)c1ccccc1Sc1ccccc1C#N` (stereo not drawn) [Example 62.1.1] showed a Ki [2, 4] of less than 50000 nM, a Ki [3] of less than 50000 nM and a Ki [1] of less than 50000 nM.
In the case of `CN(CC(=O)NC(CCCNC(=N)N)B(O)O)C(=O)c1ccccc1Sc1ccccc1C#N` (stereo not drawn) [Example 75.3.1, (2-(2-Cyano)-Thiophenyl)-Benzoyl-Sar-boroArg--OH HCl], the Ki [3] is reported as less than 500 nM.
In the case of `Cc1cccc(CCN(CC(=O)NC(CCCCN)B2OC3CC4CC(C4(C)C)C3(C)O2)C(=O)CCC(=O)O)c1` (stereo not drawn) [Example 73.1.2, Succinyl-[N-(3-(Methyl)-Phenethyl)-Gly]-boroLys-C10H16 HCl], the Ki [2, 4] is reported as less than 500 nM, the Ki [3] is reported as less than 50000 nM and the Ki [1] is reported as less than 500 nM.
With “Hydrocinnamoyl-[N-(N-(Methyl)-Benzyl)-Gly]-boroLys--OH HCl [Example 53.2.2]” the Ki [2, 4] was less than 500 nM, the Ki [3] was less than 500 nM and the Ki [1] was less than 500 nM.
Work on `CC1(C)C2CC3OB(C(CCCN)NC(=O)CN(C(=O)CCc4ccccc4)C4CC4)OC3(C)C1C2` (stereo not drawn) [Example 60.4.2, Hydrocinnamoyl-[N-(Cyclopropyl)-Gly]-boroOrn-C10H16 HCl] yielded a Ki [1] of less than 500 nM.
“Hydrocinnamoyl-[N-(Cyclopropyl)-Gly]-boroOrn(CH=NH)-C10H16 HCl [Example 58.4.2]” gave a Ki [1] of less than 50000 nM.
Molecule `CC(C)(CN(CC(=O)NC(CCCN)B1OC2CC3CC(C3(C)C)C2(C)O1)C(=O)CCc1ccccc1)c1ccccc1` (stereo not drawn) [Example 60.1.1, Hydrocinnamoyl-[N-(2,2-(Dimethyl)-Phenethyl)-Gly]-boroOrn-C10H16 HCl] has a Ki [2, 4] of less than 50000 nM and a Ki [1] of less than 500 nM.
Molecule `CC(C)(CC(=O)O)CC(=O)N(CCc1ccccc1)CC(=O)NC(CCCCN)B(O)O` (stereo not drawn) [Example 66.1.2, Glutaryl(3,3-Dimethyl)-[N-(Phenethyl)-Gly]-boroLys--OH] has a Ki [3] of less than 50000 nM and a Ki [1] of less than 500 nM.
For `CC(C)(C)OC(=O)NC(CC(=O)O)C(=O)N(CCc1ccccc1)CC(=O)NC(CCCCN)B1OC2CC3CC(C3(C)C)C2(C)O1` (stereo not drawn) [Example 69.2.2, Boc-Asp-[N-(Phenethyl)-Gly]-boroLys-C10H16], the Ki [3] was less than 500 nM and the Ki [1] was less than 500 nM.
Work on `CN(CC(=O)NC(CCCSC(=N)N)B1OC2CC3CC(C3(C)C)C2(C)O1)C(=O)c1ccccc1Sc1ccccc1` (stereo not drawn) [Example 63.1.3, 2-(Thiophenyl)-Benzoyl-Sar-boroIrg-C10H16 HBr] yielded a Ki [2, 4] of less than 500 nM, a Ki [3] of less than 50000 nM and a Ki [1] of less than 500 nM.
Work on `NCCCCC(NC(=O)CN(CCc1ccccc1)C(=O)CCC(=O)O)B(O)O` (stereo not drawn) [Example 68.3.1, Succinyl-[N-(Phenethyl)-Gly]-boroLys--OH] yielded a Ki [2, 4] of less than 50000 nM, a Ki [3] of less than 50000 nM and a Ki [1] of less than 500 nM.
For “Hydrocinnamoyl-Sar-Lys(Z)--C(=O)--O-(CH2)2--NH(Z) [Example 61.1.2]”, the “Ki values for inhibition of Serine Proteases: Factor Xa” value (from here on “Ki values for inhibition … Factor Xa”) [2] was “Inactive”, the “Ki values for inhibition of Serine Proteases: Factor VIIa” value (shortened to “Ki values for inhibition … Factor VIIa”) [3] was “Inactive” and the Ki [1] was less than 50000 nM.
With `CC(C)(CN(CC(=O)NC(CCCCN)B(O)O)C(=O)CCc1ccccc1)c1ccccc1` (stereo not drawn) [Example 59.1.1, Hydrocinnamoyl-[N-(2,2-(Dimethyl)-Phenethyl)-Gly]-boroLys--OH HCl] the Ki ([2]; pH 7.5, HCl, read-out: Ki values for inhibition of Serine Proteases: Factor Xa) was less than 50000 nM, the Ki [3] was less than 500 nM and the Ki [1] was less than 500 nM.
In the case of `CN(CC(=O)NC(CO)CCCCNC(=O)OCc1ccccc1)C(=O)CCc1ccccc1` (stereo not drawn) [Example 61.3.2, Hydrocinnamoyl-Sar-NHCH(CH20H)(CH2)4--NH(Z)], the “Ki values for inhibition … Factor Xa” value [2] is reported as “Inactive”, the “Ki values for inhibition … Factor VIIa” value [3] is reported as “Inactive” and the Ki [1] is reported as less than 50000 nM.
For “[3-(Trifluoromethyl)-Benzyl]-Benzoyl-Sar-boroLys-C10H16 HCl [Example 64.2.2]”, the Ki [2, 4] was less than 500 nM, the Ki [3] was less than 50000 nM and the Ki [1] was less than 500 nM.
`CC(C)(CN(CC(=O)NC(CCCNC(=N)N)B(O)O)C(=O)CCc1ccccc1)c1ccccc1` (stereo not drawn) [Example 55.1.1, Hydrocinnamoyl-[N-(2,2-(Dimethyl)-Phenethyl)-Gly]-boroArg--OH HCl] showed a Ki [2, 4] of less than 500 nM, a Ki [3] of less than 500 nM and a Ki [1] of less than 500 nM.
In the case of “Hydrocinnamoyl-[N-(Cyclopropyl)-Gly]-boroLys(CH=NH)-C10H16 HCl [Example 77.1.1]”, the Ki [1] is reported as less than 500 nM.
Work on `CC(C)(CN(CC(=O)NC(CCCCN)B1OC2CC3CC(C3(C)C)C2(C)O1)C(=O)CCc1ccccc1)c1ccccc1` (stereo not drawn) [Example 54.1.1, Hydrocinnamoyl-[N-(2,2-(Dimethyl)-Phenethyl)-Gly]-boroLys-C10H16 HCl] yielded a Ki [1] of less than 500 nM.
Molecule `CN(CC(=O)N(CCc1ccccc1)CC(=O)NC(CCCCN)B1OC2CC3CC(C3(C)C)C2(C)O1)S(C)(=O)=O` (stereo not drawn) [Example 69.4.2, Methanesulfonyl-Sar-[N-(Phenethyl)-Gly]-boroLys-C10H16 HCl] has a Ki [1] of less than 500 nM.
With `CC(C)(CN(CC(=O)NC(CCCCN)B1OC2CC3CC(C3(C)C)C2(C)O1)C(=O)CCc1ccccc1)c1ccccc1` (stereo not drawn) [Example 54.3.3, Hydrocinnamoyl-[N-(2,2-(Dimethyl)-Phenethyl)-Gly]-boroLys-C10H16 HCl] the Ki [2, 4] was less than 50000 nM and the Ki [3] was less than 500 nM.
For `CN(CC(=O)N(CCc1ccccc1)CC(=O)NC(CCCCN)B(O)O)S(C)(=O)=O` (stereo not drawn) [Example 68.4.2], the Ki [1] was less than 500 nM.
“Hydrocinnamoyl-[N-(N(CH3)2)-Gly]-boroLys--C10H16 HCl [Example 50.1.3]” gave a Ki [1] of less than 500 nM.
With `COC(=O)CC(C)(C)CC(=O)N(CCc1ccccc1)CC(=O)NC(CCCCN)B(O)O` (stereo not drawn) [Example 66.1.3, Methyl Glutaryl(3,3-Dimethyl)-[N-(Phenethyl)-Gly]-boroLys--OH HCl] the Ki [3] was less than 50000 nM and the Ki [1] was less than 500 nM.
In the case of `Cc1cc(C)cc(CCN(CC(=O)NC(CCCCN)B2OC3CC4CC(C4(C)C)C3(C)O2)C(=O)CCc2ccccc2)c1` (stereo not drawn) [Example 54.4.1, Hydrocinnamoyl-{N-[2-(3,5-dimethylphenyl)-ethyl]-Gly}-boroLys-C10H16 HCl], the Ki [2, 4] is reported as less than 50000 nM and the Ki [3] is reported as less than 50000 nM.
With “Hydrocinnamoyl-[N-(Cyclopropyl)-Gly]-boroLys(CH=NH)--OH HCl [Example 76.1.1]” the Ki [1] was less than 500 nM.
Work on `CC(C)(C)OC(=O)NC(CCC(=O)O)C(=O)N(CCc1ccccc1)CC(=O)NC(CCCCN)B1OC2CC3CC(C3(C)C)C2(C)O1` (stereo not drawn) [Example 69.2.1, Boc-Glu-[N-(Phenethyl)-Gly]-boroLys-C10H16] yielded a Ki [3] of less than 500 nM and a Ki [1] of less than 500 nM.
`Cc1cccc(CCN(CC(=O)NC(CCCCN)B2OC3CC4CC(C4(C)C)C3(C)O2)C(=O)CCc2ccccc2)c1` (stereo not drawn) [Example 51.1.2, Hydrocinnamoyl-[N-(3-(Methyl)-Phenethyl)-Gly]-boroLys-C10H16 HCl] was tested, and the Ki [1] was less than 500 nM.
For “Hydrocinnamoyl-Sar-Lys--C(=O)--CH3 HCl [Example 61.2.3]”, the “Ki values for inhibition … Factor Xa” value [2] was “Inactive” and the “Ki values for inhibition … Factor VIIa” value [3] was “Inactive”.
“2-(2-(Trifluoromethyl)-Benzyl)-Benzoyl-Sar-Lys--C(=O)--NHNH2 2 HCl [Example 71.4.2]” gave a Ki [1] of less than 50000 nM.
